Results as given in US6737383B1, “Herbicidal oxadiazolidines” (priority 1999, dated 2004).

What was measured:
[1] = system: cocklebur; test: Test B pre/postemergence cocklebur; type: in vivo, Xanthium strumarium
In short: (§1)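 Response is a visual 0-to-10 score relative to untreated plants, where 0 means no effect and 10 means complete control, taken twelve to sixteen days after application. Treatments went onto soil at planting and onto foliage of 1- to 4-leaf plants, using a surfactant-containing non-phytotoxic solvent.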

[2] = system: blackgrass; test: Test B pre/postemergence blackgrass; type: in vivo, Alopecurus myosuroides
In short: as §1

[3] = system: giant foxtail; test: Test B pre/postemergence giant foxtail; type: in vivo, Setaria faberii
In short: as §1

[4] = system: velvetleaf; test: Test B pre/postemergence velvetleaf; type: in vivo, Abutilon theophrasti
In short: as §1

[5] = system: soybean; test: Test B pre/postemergence soybean; type: in vivo, Glycine max
In short: as §1

[6] = system: morningglory; test: Test B pre/postemergence morningglory; type: in vivo, Ipomoea hederacea
In short: as §1

[7] = system: purple nutsedge; test: Test B pre/postemergence purple nutsedge; type: in vivo, Cyperus rotundus
In short: as §1

[8] = system: crabgrass; test: Test B pre/postemergence crabgrass; type: in vivo, Digitaria sanguinalis
In short: as §1

[9] = system: surinam grass; test: Test B pre/postemergence surinam grass; type: in vivo, Brachiaria decumbens
In short: as §1

[10] = system: pigweed; test: Test B pre/postemergence pigweed; type: in vivo, Amaranthus retroflexus
In short: as §1

[11] = system: wild oat; test: Test B pre/postemergence wild oat; type: in vivo, Avena fatua
In short: as §1

[12] = system: sugar beet; test: Test B pre/postemergence sugar beet; type: in vivo, Beta vulgaris
In short: as §1

[13] = system: bedstraw; test: Test B pre/postemergence bedstraw; type: in vivo, Galium aparine; conditions: Preemergence
In short: as §1

[14] = system: corn; test: Test B pre/postemergence corn; type: in vivo, Zea mays
In short: as §1

[15] = system: wheat; test: Test B pre/postemergence wheat; type: in vivo, Triticum aestivum
In short: as §1

[16] = system: rape; test: Test B pre/postemergence rape; type: in vivo, Brassica napus
In short: as §1

[17] = Preemergence, Rate 62 g/ha, scale of 0 to 10 where 0 is no effect and 10 is complete control
[18] = Preemergence, Rate 250 g/ha, scale 0 to 10 (0 no effect, 10 complete control)
[19] = Preemergence, Rate 500 g/ha, scale of 0 to 10 where 0 is no effect and 10 is complete control
[20] = Preemergence, Rate 125 g/ha, scale of 0 to 10 where 0 is no effect and 10 is complete control
[21] = Postemergence, Rate 62 g/ha, scale 0 to 10, 0 is no effect, 10 is complete control
[22] = Postemergence, Rate 125 g/ha, scale of 0 to 10 where 0 is no effect and 10 is complete control
[23] = Postemergence, Rate 250 g/ha, scale 0 to 10, 0 no effect, 10 complete control
[24] = Preemergence, Rate 62 g/ha, scale 0 to 10 (0 no effect, 10 complete control)
[25] = Preemergence, Rate 250 g/ha, scale of 0 to 10 where 0 is no effect and 10 is complete control
[26] = Rate 500 g/ha, Postemergence, scale 0 to 10, 0 no effect, 10 complete control
[27] = Preemergence, Rate 125 g/ha, scale 0 to 10 (0 no effect, 10 complete control)
[28] = Preemergence, Rate 500 g/ha, scale 0 (no effect) to 10 (complete control)
[29] = Preemergence, Rate 125 g/ha, 0 is no effect, 10 is complete control
[30] = Rate 250 g/ha, Postemergence, scale 0 to 10, 0 is no effect, 10 is complete control

For CC(C)N(C(=O)n1oc(=O)n(C(C)C)c1=O)c1ccc(Br)cc1 [Compound 691], the “Cocklebur plant response rating” value [1, 17] was 0, the “Plant response rating, Cocklebur” value [1, 18] was 0 and the “Plant response rating, Cocklebur” value [1, 19] was 0. For the same compound, the “Blackgrass plant response rating” value [2, 17] was 4, the “Plant response rating, Blackgrass” value [2, 20] was 9 and the “Plant response rating, Blackgrass” value [2, 18] was 10. For the same compound, the “Plant response rating, Blackgrass” value [2, 19] was 10, the “Giant foxtail plant response rating” value [3, 17] was 9 and the “Plant response rating, Giant foxtail” value [3, 20] was 10. For the same compound, the “Velvetleaf plant response rating” value [4, 17] was 0, the “Plant response rating, Velvetleaf” value [4, 20] was 0 and the “Soybean plant response rating” value [5, 17] was 2. The “Plant response rating, Soybean” value [5, 20] was 2, the “Morningglory plant response rating” value [6, 17] was 0 and the “Plant response rating, Morningglory” value [6, 20] was 0. For the same compound, the “Nutsedge plant response rating” value [7, 17] was 0, the “Crabgrass plant response rating” value [8, 17] was 9 and the “Plant response rating, Crabgrass” value [8, 20] was 9. The “Plant response rating, Crabgrass” value [8, 18] was 10, the “B. signalgrass plant response rating” value [9, 17] was 0 and the “Plant response rating, B. signalgrass” value [9, 20] was 8. The “Plant response rating, B. signalgrass” value [9, 18] was 9, the “Plant response rating, B. signalgrass” value [9, 19] was 10 and the “Redroot pigweed plant response rating” value [10, 17] was 2. The “Plant response rating, Redroot pigweed” value [10, 20] was 3, the “Wild oats plant response rating” value [11, 17] was 2 and the “Plant response rating, Wild oats” value [11, 20] was 6. The “Sugarbeets plant response rating” value [12, 17] was 0, the “Plant response rating, Sugarbeets” value [12, 20] was 2 and the “Bedstraw plant response rating” value ([13]; Rate 62 g/ha, scale of 0 to 10 where 0 is no effect and 10 is complete control) was 0. The “Plant response rating, Bedstraw” value ([13]; Rate 125 g/ha, scale of 0 to 10 where 0 is no effect and 10 is complete control) was 9, the “Plant response rating, Bedstraw” value ([13]; Rate 250 g/ha, scale 0 to 10 (0 no effect, 10 complete control)) was 9 and the “Corn plant response rating” value [14, 17] was 0. The “Plant response rating, Corn” value [14, 20] was 0, the “Plant response rating, Corn” value [14, 18] was 0 and the “Wheat plant response rating” value [15, 17] was 0. For the same compound, the “Plant response rating, Wheat” value [15, 20] was 0, the “Rape plant response rating” value [16, 17] was 0 and the “Plant response rating, Rape” value [16, 20] was 3.
With CCCn1c(=O)on(C(=O)N(c2ccccc2)C(C)C)c1=O [Compound 92] the “Cocklebur plant response rating” value [1, 21] was 0, the “Cocklebur plant response rating” value [1, 22] was 1 and the “Cocklebur plant response rating” value [1, 23] was 2. The “Cocklebur plant response rating” value [1, 24] was 0, the “Plant response rating, Cocklebur” value [1, 25] was 0 and the “Cocklebur plant response rating” value [1, 26] was 3. The “Blackgrass plant response rating” value [2, 21] was 7, the “Blackgrass plant response rating” value [2, 22] was 7 and the “Blackgrass plant response rating” value [2, 23] was 7. The “Blackgrass plant response rating” value [2, 24] was 9, the “Plant response rating, Blackgrass” value [2, 27] was 10 and the “Plant response rating, Blackgrass” value [2, 25] was 10. The “Blackgrass plant response rating” value [2, 28] was 10, the “Blackgrass plant response rating” value [2, 26] was 8 and the “Giant foxtail plant response rating” value [3, 21] was 8. The “Giant foxtail plant response rating” value [3, 22] was 8, the “Giant foxtail plant response rating” value [3, 23] was 9 and the “Giant foxtail plant response rating” value [3, 24] was 10. For the same compound, the “Plant response rating, Giant foxtail” value [3, 27] was 10, the “Plant response rating, Giant foxtail” value [3, 25] was 10 and the “Giant foxtail plant response rating” value [3, 28] was 10. For the same compound, the “Giant foxtail plant response rating” value [3, 26] was 9, the “Velvetleaf plant response rating” value [4, 21] was 0 and the “Velvetleaf plant response rating” value [4, 22] was 0. For the same compound, the “Velvetleaf plant response rating” value [4, 24] was 4, the “Velvetleaf plant response rating (0 to 10 scale)” value [4, 29] was 6 and the “Plant response rating, Velvetleaf” value [4, 25] was 6. For the same compound, the “Velvetleaf plant response rating” value [4, 28] was 8, the “Plant response rating, Velvetleaf” value [4, 30] was 0 and the “Soybean plant response rating” value [5, 21] was 3. For the same compound, the “Soybean plant response rating” value [5, 22] was 3, the “Soybean plant response rating” value [5, 24] was 0 and the “Plant response rating, Soybean” value [5, 27] was 3. The “Plant response rating, Soybean” value [5, 25] was 4, the “Soybean plant response rating” value [5, 28] was 9 and the “Plant response rating, Soybean” value [5, 30] was 3. The “Soybean plant response rating” value [5, 26] was 5, the “Morningglory plant response rating” value [6, 21] was 7 and the “Morningglory plant response rating” value [6, 22] was 8. The “Morningglory plant response rating” value [6, 23] was 10, the “Morningglory plant response rating” value [6, 24] was 0 and the “Plant response rating, Morningglory” value [6, 27] was 0. The “Plant response rating, Morningglory” value [6, 25] was 0, the “Morningglory plant response rating” value [6, 28] was 3 and the “Morningglory plant response rating” value [6, 26] was 10. The “Nutsedge plant response rating” value [7, 21] was 0, the “Nutsedge plant response rating” value [7, 22] was 0 and the “Nutsedge plant response rating” value [7, 23] was 0. The “Nutsedge plant response rating” value [7, 24] was 0, the “Plant response rating, Nutsedge” value [7, 27] was 0 and the “Plant response rating, Nutsedge” value [7, 25] was 0. The “Nutsedge plant response rating” value [7, 28] was 0, the “Nutsedge plant response rating” value [7, 26] was 2 and the “Crabgrass plant response rating” value [8, 21] was 6. For the same compound, the “Crabgrass plant response rating” value [8, 22] was 8, the “Crabgrass plant response rating” value [8, 23] was 9 and the “Crabgrass plant response rating” value [8, 24] was 8. For the same compound, the “Plant response rating, Crabgrass” value [8, 27] was 10, the “Plant response rating, Crabgrass” value [8, 25] was 8 and the “Crabgrass plant response rating” value [8, 28] was 10. The “Crabgrass plant response rating” value [8, 26] was 9, the “B. signalgrass plant response rating” value [9, 21] was 3 and the “B. signalgrass plant response rating” value [9, 23] was 7. For the same compound, the “B. signalgrass plant response rating” value [9, 24] was 10, the “Plant response rating, B. signalgrass” value [9, 25] was 10 and the “B. signalgrass plant response rating” value ([9]; Rate 125 g/ha, Postemergence, scale 0 to 10, 0 no effect, 10 complete control) was 5. The “B. signalgrass plant response rating” value ([9]; Rate 500 g/ha, Postemergence, scale of 0 to 10 where 0 is no effect and 10 is complete control) was 7, the “Redroot pigweed plant response rating” value [10, 21] was 2 and the “Redroot pigweed plant response rating” value [10, 22] was 3. For the same compound, the “Redroot pigweed plant response rating” value [10, 24] was 2, the “Plant response rating, Redroot pigweed” value [10, 27] was 7 and the “Plant response rating, Redroot pigweed” value [10, 25] was 9. For the same compound, the “Redroot pigweed plant response rating” value [10, 28] was 10, the “Plant response rating, Redroot pigweed” value [10, 30] was 4 and the “Redroot pigweed plant response rating” value [10, 26] was 5. The “Wild oats plant response rating” value [11, 21] was 0, the “Wild oats plant response rating” value [11, 22] was 1 and the “Wild oats plant response rating” value [11, 24] was 7. For the same compound, the “Wild oats plant response rating (0 to 10 scale)” value [11, 29] was 8, the “Plant response rating, Wild oats” value [11, 25] was 9 and the “Wild oats plant response rating” value [11, 28] was 10. For the same compound, the “Plant response rating, Wild oats” value [11, 30] was 1, the “Wild oats plant response rating” value [11, 26] was 5 and the “Sugarbeets plant response rating” value [12, 21] was 1. The “Sugarbeets plant response rating” value [12, 22] was 4, the “Sugarbeets plant response rating” value [12, 24] was 2 and the “Sugarbeets plant response rating (0 to 10 scale)” value [12, 29] was 6. The “Plant response rating, Sugarbeets” value [12, 25] was 8, the “Sugarbeets plant response rating” value [12, 28] was 9 and the “Plant response rating, Sugarbeets” value [12, 30] was 6. The “Sugarbeets plant response rating” value [12, 26] was 6, the “Bedstraw plant response rating” value ([13]; Rate 62 g/ha, scale 0 to 10 (0 no effect, 10 complete control)) was 0 and the “Plant response rating, Bedstraw” value ([13]; Rate 125 g/ha, scale 0 to 10 (0 no effect, 10 complete control)) was 0. For the same compound, the “Plant response rating, Bedstraw” value ([13]; Rate 250 g/ha, scale of 0 to 10 where 0 is no effect and 10 is complete control) was 0, the “Bedstraw plant response rating” value ([13]; Rate 500 g/ha, scale 0 (no effect) to 10 (complete control)) was 1 and the “Corn plant response rating” value [14, 21] was 0. For the same compound, the “Corn plant response rating” value [14, 22] was 0, the “Corn plant response rating” value [14, 23] was 0 and the “Corn plant response rating” value [14, 24] was 0. For the same compound, the “Plant response rating, Corn” value [14, 27] was 2, the “Plant response rating, Corn” value [14, 25] was 5 and the “Corn plant response rating” value [14, 28] was 9. The “Corn plant response rating” value [14, 26] was 4, the “Wheat plant response rating” value [15, 21] was 0 and the “Wheat plant response rating” value [15, 22] was 2. For the same compound, the “Wheat plant response rating” value [15, 24] was 3, the “Wheat plant response rating (0 to 10 scale)” value [15, 29] was 6 and the “Plant response rating, Wheat” value [15, 25] was 7. For the same compound, the “Wheat plant response rating” value [15, 28] was 7, the “Plant response rating, Wheat” value [15, 30] was 5 and the “Wheat plant response rating” value [15, 26] was 6. The “Rape plant response rating” value [16, 21] was 2, the “Rape plant response rating” value [16, 22] was 3 and the “Rape plant response rating” value [16, 23] was 4. The “Rape plant response rating” value [16, 24] was 4, the “Plant response rating, Rape” value [16, 27] was 9 and the “Plant response rating, Rape” value [16, 25] was 10. The “Rape plant response rating” value [16, 28] was 10 and the “Rape plant response rating” value [16, 26] was 6.
